According to US7425557B2, “Inhibitors of glycogen synthase kinase 3” (Novartis Vaccines and Diagnostics, Inc., priority 1998, dated 2008):

Target: human GSK3β (Homo sapiens, UniProt P49841)
Assay: Screening for GSK3 inhibitory activity using a cell-free assay
Format: biochemical
Settings: read-out: IC50 with respect to GSK3
In short: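 Radiometric cell-free assay with recombinant human GSK3β phosphorylating a biotinylated peptide substrate for 3 h. Reactions were stopped with 50 μM ATP/20 mM EDTA and captured on streptavidin plates. Incorporated radiolabel was counted by scintillation and plotted against compound concentration.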

human GSK3β, sequence (P49841 whole entry): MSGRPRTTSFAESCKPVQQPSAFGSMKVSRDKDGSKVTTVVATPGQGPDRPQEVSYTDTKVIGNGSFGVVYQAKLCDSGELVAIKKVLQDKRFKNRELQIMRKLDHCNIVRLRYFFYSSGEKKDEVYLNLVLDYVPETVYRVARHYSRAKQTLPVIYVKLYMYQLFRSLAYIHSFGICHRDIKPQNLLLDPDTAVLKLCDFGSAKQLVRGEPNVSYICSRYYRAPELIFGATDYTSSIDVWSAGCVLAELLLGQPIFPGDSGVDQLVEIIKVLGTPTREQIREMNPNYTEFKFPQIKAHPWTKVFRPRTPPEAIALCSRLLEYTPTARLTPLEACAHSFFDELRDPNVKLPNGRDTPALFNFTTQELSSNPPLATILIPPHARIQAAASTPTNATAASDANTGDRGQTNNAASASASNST

SMILES	IC50 [µM]
c1ccc(-c2ccnc(NCCc3ccccn3)n2)cc1 [(4-phenylpyrimidin-2-yl)(2-(2-pyridyl)ethyl)amine]	≤ 10
COc1cccc(CNc2nccc(-c3ccc(C(N)=O)cc3)n2)c1 [4-(2-{[(3-methoxyphenyl)methyl]-amino}pyrimidin-4-yl)benzamide]	≤ 10
O=[N+]([O-])c1ccc(NCCNc2ncc(-c3ncc[nH]3)c(-c3ccc(Cl)cc3)n2)nc1 [[4-(4-chlorophenyl)-5-imidazol-2-ylpyrimidin-2-yl]{2-[(5-nitro(2-pyridyl))amino]ethyl}amine]	≤ 1
NC(=O)c1ccc(-c2ccnc(NCc3cccc(Cl)c3)n2)cc1 [4-(2-{[(3-chlorophenyl)methyl]amino}pyrimidin-4-yl)benzamide]	≤ 10
Cc1cn(-c2ccc(NCCNc3ccc([N+](=O)[O-])c(N)n3)nc2-c2ccc(Cl)cc2Cl)cn1 [{2-[(6-amino-5-nitro(2-pyridyl))amino]ethyl}[6-(2,4-dichlorophenyl)-5-(4-methylimidazolyl)(2-pyridyl)]amine]	≤ 1
CCOC(=O)c1cnc(NCCNc2ccc([N+](=O)[O-])cn2)nc1-c1ccc(-c2nnn[nH]2)cc1 [ethyl 4-(4-(1H-1,2,3,4-tetraazol-5-yl)phenyl)-2-({2-[(5-nitro(2-pyridyl))amino]ethyl}amino)pyrimidine-5-carboxylate]	≤ 1
O=C(NCCc1ccccc1)c1ccc(-c2ccnc(NCCNc3ccc([N+](=O)[O-])cn3)n2)cc1 [{4-[2-({2-[(5-nitro(2-pyridyl))amino]ethyl}amino)-pyrimidin-4-yl]phenyl}-N-(2-phenylethyl)carboxamide]	≤ 10
CCOC(=O)c1cnc(NCCNc2ccc([N+](=O)[O-])cn2)nc1-c1ccc(OC)c(OC)c1 [ethyl 4-(3,4-dimethoxyphenyl)-2-({2-[(5-nitro(2-pyridyl))amino]ethyl}amino)pyrimidine-5-carboxylate]	≤ 10
CCOC(=O)c1c(CC)nc(NCCNc2ncccn2)nc1-c1ccc(C(N)=O)cc1 [ethyl 4-(4-carbamoylphenyl)-6-ethyl-2-{[2-(pyrimidin-2-ylamino)ethyl]amino}pyrimidine-5-carboxylate]	≤ 10
CCOC(=O)c1cnc(NCCNc2ncc(C#N)c(N)n2)nc1-c1ccc(C#N)cc1 [ethyl 2-({2-[(4-amino-5-cyanopyrimidin-2-yl)amino]ethyl}amino)-4-(4-cyanophenyl)pyrimidine-5-carboxylate]	≤ 1
NC(=O)c1ccc(-c2ccnc(NCCc3ccc4c(c3)OCO4)n2)cc1	≤ 10
Cc1cccc(CNc2nccc(-c3ccc(C(N)=O)cc3)n2)c1 [4-(2-{[(3-methylphenyl)-methyl]amino}pyrimidin-4-yl)benzamide]	≤ 10
N#Cc1ccc(NCCNCc2ncc(-c3ncc[nH]3)c(-c3ccc(Cl)cc3Cl)n2)nc1 [6-[(2-{[4-(2,4-dichlorophenyl)-5-imidazol-2-ylpyrimidin-2-yl]methylamino}ethyl)amino]pyridine-3-carbonitrile]	≤ 1
CCOC(=O)c1c(CC)nc(NCCNc2ccccn2)nc1-c1ccc(C(N)=O)cc1 [ethyl 4-(4-carbamoylphenyl)-6-ethyl-2-{[2-(2-pyridylamino)ethyl]-amino}pyrimidine-5-carboxylate]	≤ 10
CN1CC(=O)N(c2cnc(NCCNc3ccc([N+](=O)[O-])c(N)n3)nc2-c2ccc(Cl)cc2Cl)C(=O)C1 [1-[2-({2-[(6-amino-5-nitro(2-pyridyl))amino]ethyl}-amino)-4-(2,4-dichlorophenyl)pyrimidin-5-yl]-4-methylpiperazine-2,6-dione]	≤ 1
CN(C)CCOC(=O)c1cnc(NCCNc2ccc([N+](=O)[O-])cn2)nc1-c1ccc(C#N)cc1	≤ 1
CCc1cnc(NCCNc2ccccn2)nc1-c1ccccc1	≤ 10
O=[N+]([O-])c1ccc(NCCNc2nccc(NCc3cccc(Br)c3)n2)nc1 [(4-{[(3-bromophenyl)methyl]amino}pyrimidin-2-yl){2-[(5-nitro(2-pyridyl))amino]ethyl}-amine]	≤ 10
NC(=O)c1ccc(-c2ccnc(NCc3cccc(-c4cccc(C(F)(F)F)c4)c3)n2)cc1 [4-{2-[({3-[3-(trifluoromethyl)phenyl]phenyl}methyl)amino]pyrimidin-4-yl}benzamide]	≤ 10
COc1cccc(CNC(=O)c2ccc(-c3ccnc(NCCNc4ccc([N+](=O)[O-])cn4)n3)cc2)c1OC [N-[(2,3-dimethoxyphenyl)methyl]{4-[2-({2-[(5-nitro(2-pyridyl))amino]ethyl}amino)pyrimidin-4-yl]phenyl}carboxamide]	≤ 10
N#Cc1ccc(-c2nc(NCCNc3ccc([N+](=O)[O-])cn3)ncc2C#N)cc1 [4-(4-cyanophenyl)-2-({2-[(5-nitro(2-pyridyl))amino]ethyl}amino)pyrimidine-5-carbonitrile]	≤ 1

More lines, now with the values ahead:

IC50 [µM]	SMILES
≤ 10	NC(=O)c1ccc(-c2ccnc(NCc3ccc(C(F)(F)F)cc3)n2)cc1 [4-[2-({[4-(trifluoromethyl)phenyl]methyl}amino)pyrimidin-4-yl]benzamide]
≤ 10	O=[N+]([O-])c1ccc(NCCNc2ncc(-c3ccc(F)cc3)cn2)nc1 [[5-(4-fluorophenyl)pyrimidin-2-yl]{2-[(5-nitro(2-pyridyl))amino]ethyl}amine]
≤ 1	O=[N+]([O-])c1ccc(NCCNc2ncc(-n3nnc4ccccc43)c(-c3ccc(Cl)cc3Cl)n2)nc1 [[5-benzotriazolyl-4-(2,4-dichlorophenyl)pyrimidin-2-yl]{2-[(5-nitro(2-pyridyl))amino]ethyl}amine]
≤ 10	O=C(NCc1cccc(Br)c1)c1ccc(-c2ccnc(NCCNc3ccc([N+](=O)[O-])cn3)n2)cc1 [N-[(3-bromophenyl)methyl]{4-[2-({2-[(5-nitro(2-pyridyl))amino]ethyl}amino)pyrimidin-4-yl]phenyl}carboxamide]
≤ 1	CCc1cnc(NCCNc2ccc([N+](=O)[O-])cn2)nc1-c1ccc(Cl)cc1Cl [[4-(2,4-dichlorophenyl)-5-ethylpyrimidin-2-yl]{2-[(5-nitro(2-pyridyl))amino]ethyl}amine]
≤ 1	Cc1cn(-c2ccc(NCCNc3ccc(C#N)cn3)nc2-c2ccc(Cl)cc2Cl)cn1 [6-[(2-{[6-(2,4-dichlorophenyl)-5-(4-methylimidazolyl)-2-pyridyl]-amino}ethyl)amino]pyridine-3-carbonitrile]
≤ 1	Nc1nc(NCCNc2ncc(-c3ncc[nH]3)c(-c3ccc(F)cc3Cl)n2)ccc1[N+](=O)[O-] [{2-[(6-amino-5-nitro(2-pyridyl))amino]ethyl}[4-(2-chloro-4-fluorophenyl)-5-imidazol-2-ylpyrimidin-2-yl]amine]
≤ 10	O=[N+]([O-])c1ccc(NCCNc2ncc(-c3ccccc3)c(-c3ccc(O)cc3)n2)nc1 [4-[2-({2-[(5-nitro(2-pyridyl))amino]ethyl}amino)-5-phenylpyrimidin-4-yl]phenol]
≤ 10	NC(=O)c1ccc(-c2ccnc(NCCCOc3ccc(Cl)cc3)n2)cc1 [4-(2-{[3-(4-chlorophenoxy)propyl]amino}pyrimidin-4-yl)benzamide]
≤ 1	N#Cc1ccc(-c2nc(NCCNc3ccc([N+](=O)[O-])cn3)ncc2C(=O)OCCN2CCOCC2)cc1 [2-morpholin-4-ylethyl 4-(4-cyanophenyl)-2-({2-[(5-nitro(2-pyridyl))amino]ethyl}-amino)pyrimidine-5-carboxylate]
≤ 1	Nc1nc(NCCNc2ncc(CO)c(-c3ccc(Cl)cc3Cl)n2)ccc1[N+](=O)[O-] [[2-({2-[(6-amino-5-nitro(2-pyridyl))amino]ethyl}amino)-4-(2,4-dichlorophenyl)pyrimidin-5-yl]methan-1-ol]
≤ 10	O=[N+]([O-])c1ccc(NCCNc2nccc(NCc3ccc(Cl)cc3)n2)nc1 [[(4-chlorophenyl)methyl][2-({2-[(5-nitro(2-pyridyl))amino]ethyl}amino)pyrimidin-4-yl]amine]
≤ 1	COc1ccccc1CCNc1nccc(-c2ccc(C(N)=O)cc2)n1 [4-(2-{[2-(2-methoxyphenyl)-ethyl]amino}pyrimidin-4-yl)benzamide]
≤ 10	CCOC(=O)c1cnc(NCCNc2ccc(C(=O)OC(C)(C)C)cn2)nc1-c1ccc(C#N)cc1 [tert-butyl 6-[(2-{[4-(4-cyanophenyl)-5-(ethoxycarbonyl)pyrimidin-2-yl]amino}ethyl)amino]pyridine-3-carboxylate]
≤ 10	O=C(NCc1ccc(Br)cc1)c1ccc(-c2ccnc(NCCNc3ccc([N+](=O)[O-])cn3)n2)cc1 [N-[(4-bromophenyl)methyl]{4-[2-({2-[(5-nitro(2-pyridyl))-amino]ethyl}amino)pyrimidin-4-yl]phenyl}carboxamide]
≤ 10	COc1ccc(CNC(=O)c2ccc(-c3ccnc(NCCNc4ccc([N+](=O)[O-])cn4)n3)cc2)cc1 [N-[(4-methoxyphenyl)methyl]{4-[2-({2-[(5-nitro(2-pyridyl))amino]ethyl}-amino)pyrimidin-4-yl]phenyl}carboxamide]
≤ 1	N#Cc1ccc(NCCNc2nccc(-c3ccc(C(=O)NCc4cccc(Br)c4)cc3)n2)nc1 [N-[(3-bromophenyl)methyl]{4-[2-({2-[(5-cyano(2-pyridyl))amino]ethyl}-amino)pyrimidin-4-yl]phenyl}carboxamide]
≤ 10	NC(=O)c1ccc(-c2ccnc(NCc3cccc([N+](=O)[O-])c3)n2)cc1 [4-(2-{[(3-nitro-phenyl)methyl]amino}pyrimidin-4-yl)benzamide]
≤ 10	N#Cc1ccc(CNc2nccc(-c3ccc(C(N)=O)cc3)n2)cc1 [4-(2-{[(4-cyanophenyl)methyl]amino}pyrimidin-4-yl)benzamide]
≤ 1	Nc1nc(NCCNc2ncc(-c3ncc[nH]3)c(-c3ccc(Br)cc3Cl)n2)ccc1[N+](=O)[O-] [{2-[(6-amino-5-nitro(2-pyridyl))amino]ethyl}[4-(4-bromo-2-chlorophenyl)-5-imidazol-2-ylpyrimidin-2-yl]amine]
≤ 1	N#Cc1ccc(-c2nc(NCCNc3ccc([N+](=O)[O-])cn3)ncc2C(=O)OCCN(CCO)CCO)cc1
